Experimental findings from paper PMC2870997 (Bioorganic & medicinal chemistry letters, 2009) are described below.

The assay deals with PKA reporter Reg-F[1]:Cat-F[2]. Put plainly: Protein-fragment complementation. The assay is classed as cell-based. The following applies: β2AR-HEK293 cells.

Consider `CC(C)NCC(O)c1ccc(O)c(O)c1` (centres unmarked) [Analogue 19, isoproterenol], for which the “Effect on luminescence by β2AR activation (control)” value (1 μM, 30 min) was “able to reduce luminescence”.
With `Cc1ccc(OCC(O)C(C)NC(C)C)c2c1CCC2` (centres unmarked) [Analogue 20, IC118551], the “Effect of pretreatment on the response to 19 (control)” value (1 μM pretreatment) is recorded as “capable of preventing the effects of 19”.
